Reference: patent US10889555B2, “Sulfonamide compound or salt thereof” (Taiho Pharmaceutical Co., Ltd., priority 2016, dated 2021)
Like-named read-outs stand apart in the source and are kept apart here.

Tested on: HCC 1806 cells
Experiment: Cell proliferation inhibitory effect on human breast cancer cell line (crystal violet, 72 hours)
Type: cell-based
Settings: read-out: Cell growth suppression IC50
Protocol: Human derived breast cancer cell line HCC 1806 cells were daily passaged at a cell density not exceeding 80% in ATCC recommended Roswell Park Memorial Institute medium (RPMI-1640) containing 10% fetal bovine serum (FBS). In order to start the test of cell proliferation inhibitory activity, HCC 1806 cells were suspended in the above medium, after seeing at 180 μL in each well of a 96-well flat bottom plate so that the number of cells per well was 2,000, the cells were cultured at 37° C. for 1 day in an incubator containing 5% carbon dioxide gas. On the next day, the test compound was dissolved in DMSO, and 20 μL of a drug additive solution diluted serially with distilled water to 10 times of the final concentration was added to each well of the culture plate of the cells, and the cells were cultured at 37° C. for 72 hours in an incubator containing 5% carbon dioxide gas. After culturing for 72 hours, 20 μL of glutaraldehyde was added to each well and allowed to stand for 30 minutes, then the plate was washed 10 times with water and was dried. 100 μL of a stain solution (0.05% crystal violet in a 20% methanol solution) was added to each well and allowed to stand for 30 minutes, then the plate was washed 10 times with water and was dried. 100 μL of an extract solution (0.1 N NaH2PO4: 100% ethanol=1:1) was added to each well and mixed, and the mixture was measured at a wavelength of 540 nm using a plate reader (MTP-450 manufactured by Corona Electric Co., Ltd.). The growth inhibition rate was calculated from the following formula, and the concentration (IC50 (μM)) of a test compound inhibiting 50% was determined. Growth inhibition rate (%)={(C−B)−(T−B)}/(C−B)×100
T: Absorbance of well to which test compound was added
C: Absorbance of wells to which no test compound was added
B: Absorbance of wells to which no cell suspension was added

Compound	IC50 (Homo sapiens, HCC1806, 72 h) [nM]	IC50 [nM]
Cc1ccc(F)c([C@@H](C)[C@H](NS(=O)(=O)c2ccc(Cl)c3c2OCCN3CC(F)F)c2n[nH]c(=O)o2)c1C [Example 102, 5-chloro-4-(2,2-difluoroethyl)-N-((1S,2R)-2-(6-fluoro-2,3-dimethylphenyl)-1-(5-oxo-4,5-dihydro-1,3,4-oxadiazol-2-yl)propy1)-3,4-dihydro-2H-benzo[b][1,4]oxazine-8-sulfonamide]	660	–
Cc1ccc(F)c([C@@H](C)[C@H](NS(=O)(=O)c2ccc(Cl)nc2C(N)=O)c2n[nH]c(=O)o2)c1C [Example 19, 6-Chloro-3-(N-((1S,2R)-2-(6-fluoro-2,3-dimethylphenyl)-1-(5-oxo-4,5-dihydro-1,3,4-oxadiazol-2-yl)propyl)sulfamoyl)picolinamide]	940	–
CCc1ccc(F)c([C@@H](C)[C@H](NS(=O)(=O)c2ccc(Cl)c3c2OCCC3O)c2n[nH]c(=O)o2)c1C (single isomer, unassigned) [Example 239A]	720	–
Cc1ccc(S(=O)(=O)N[C@H](c2n[nH]c(=O)o2)[C@H](C)c2c(F)ccc(C)c2C)c(C(N)=O)c1 [Example 10, 2-(N-((1S,2R)-2-(3-6-fluoro-2,3-dimethylphenyl)-1-(5-oxo-4,5-dihydro-1,3,4-oxadiazol-2-yl)propyl)sulfamoyl)-5-methylbenzamide]	560	–
Cc1c(Cl)ccc(F)c1[C@@H](C)[C@H](NS(=O)(=O)c1ccc(F)c2c1OCCC2(C)O)c1n[nH]c(=O)o1 (single isomer, unassigned) [Example 229A]	310	–
Cc1c(Br)ccc(F)c1[C@@H](C)[C@H](NS(=O)(=O)c1ccc(F)c2c1OCCC2(C)O)c1n[nH]c(=O)o1 (single isomer, unassigned) [Example 227A]	190	–
Cc1ccc(F)c([C@@H](C)[C@H](NS(=O)(=O)c2ccc(F)c(C(C)(C)O)c2F)c2n[nH]c(=O)o2)c1C [Example 186, 2,4-difluoro-N-((1S,2R)-2-(6-fluoro-2,3-dimethylphenyl)-1-(5-oxo-4,5-dihydro-1,3,4-oxadiazol-2-yl)propyl)-3-(2-hydroxypropan-2-yl)benzenesulfonamide]	640	–
Cc1c(Cl)ccc(F)c1[C@@H](C)[C@H](NS(=O)(=O)c1ncc(Cl)cc1C(N)=O)c1n[nH]c(=O)o1 [Example 249, 5-chloro-2-(N-((1S,2R)-2-(3-chloro-6-fluoro-2-methylphenyl)-1-(5-oxo-4,5-dihydro-1,3,4-oxadiazol-2-yl)propyl)sulfamoyl)nicotinamide]	140	–
CNC(=O)c1nc(S(=O)(=O)N[C@H](c2n[nH]c(=O)o2)[C@H](C)c2c(F)ccc(C)c2C)ccc1Cl [Example 252, 3-chloro-6-(N-((1S,2R)-2-(6-fluoro-2,3-dimethylphenyl)-1-(5-oxo-4,5-dihydro-1,3,4-oxadiazol-2-yl)propyl)sulfamoyl)-N-methylpicolinamide]	740	–
COc1c(S(=O)(=O)N[C@H](c2n[nH]c(=O)o2)[C@H](C)c2c(F)ccc(C)c2C)ccc(Cl)c1C(C)O (single isomer, unassigned) [Example 208B]	–	50
Cc1c(Cl)ccc(F)c1[C@@H](C)[C@H](NS(=O)(=O)c1ccc(Cl)c2c1OCCC2(C)N)c1n[nH]c(=O)o1 (single isomer, unassigned) [Example 330A]	240	–
Cc1ccc(F)c([C@@H](C)[C@H](NS(=O)(=O)c2ccc(Cl)c3c2OCCC3(O)C(F)(F)F)c2n[nH]c(=O)o2)c1C (single isomer, unassigned) [Example 220B]	–	500
Cc1c(Cl)ccc(F)c1[C@@H](C)[C@H](NS(=O)(=O)c1ccc(Cl)c2c1OCCC2O)c1n[nH]c(=O)o1 (single isomer, unassigned) [Example 238A]	440	–
COc1cc(Cl)ccc1S(=O)(=O)N[C@H](c1n[nH]c(=O)o1)[C@H](C)c1c(F)ccc(-c2cnn(C(F)F)c2)c1C [Example 304, 4-chloro-N-((1S,2R)-2-(3-(1-(difluoromethyl)-1H-pyrazol-4-yl)-6-fluoro-2-methylphenyl)-1-(5-oxo-4,5-dihydro-1,3,4-oxadiazol-2-yl)propyl)-2-methoxybenzenesulfonamide]	940	–
COc1cc(Cl)ccc1S(=O)(=O)N[C@H](c1n[nH]c(=O)o1)[C@H](C)c1c(F)ccc(-c2cn[nH]c2)c1C [Example 303, 4-chloro-N-((1S,2R)-2-(6-fluoro-2-methyl-3-(1H-pyrazol-4-yl)phenyl)-1-(5-oxo-4,5-dihydro-1,3,4-oxadiazol-2-yl)propyl)-2-methoxybenzenesulfonamide]	990	–
COc1cc(Cl)ccc1S(=O)(=O)N[C@H](c1n[nH]c(=O)o1)[C@H](C)c1c(F)ccc(-c2cnn(C3CC3)c2)c1C [Example 311, 4-chloro-N-((1S,2R)-2-(3-(1-cyclopropyl-1H-pyrazol-4-yl)-6-fluoro-2-methylphenyl)-1-(5-oxo-4,5-dihydro-1,3,4-oxadiazol-2-yl)propyl)-2-methoxybenzenesulfonamide]	520	–
Cc1ccc(F)c([C@@H](C)[C@H](NS(=O)(=O)c2ccc(F)c3c2OCCC3(C)O)c2n[nH]c(=O)o2)c1C (single isomer, unassigned) [Example 224B]	770	–
Cc1ccc(F)c([C@@H](C)[C@H](NS(=O)(=O)c2ccc(Cl)c(C(=O)N(C)C)n2)c2n[nH]c(=O)o2)c1C [Example 253, 3-chloro-6-(N-((1S,2R)-2-(6-fluoro-2,3-dimethylphenyl)-1-(5-oxo-4,5-dihydro-1,3,4-oxadiazol-2-yl)propyl)sulfamoyl)-N,N-dimethylpicolinamide]	230	–
Cc1ccc(F)c([C@@H](C)[C@H](NS(=O)(=O)c2cc(C(C)(C)O)c(F)cc2C(N)=O)c2n[nH]c(=O)o2)c1C [Example 196, 5-fluoro-2-(N-((1S,2R)-2-(6-fluoro-2,3-dimethylphenyl)-1-(5-oxo-4,5-dihydro-1,3,4-oxadiazol-2-yl)propyl)sulfamoyl)-4-(2-hydroxypropan-2-yl)benzamide]	320	–
COC(=O)c1nc(S(=O)(=O)N[C@H](c2n[nH]c(=O)o2)[C@H](C)c2c(F)ccc(C)c2C)ccc1Cl [Example 109, methyl 3-chloro-6-(N-((1S,2R)-2-(6-fluoro-2,3-dimethylphenyl)-1-(5-oxo-4,5-dihydro-1,3,4-oxadiazol-2-yl)propyl)sulfamoyl)picolinate]	400	–
CC(=O)NC1CCOc2c(S(=O)(=O)N[C@H](c3n[nH]c(=O)o3)[C@H](C)c3c(F)ccc(C)c3C)ccc(Cl)c21 (stereo partly drawn) [Example 157, N-(5-chloro-8-(N-((1S,2R)-2-(6-fluoro-2,3-dimethylphenyl)-1-(5-oxo-4,5-dihydro-1,3,4-oxadiazol-2-yl)propyl)sulfamoyl)chroman-4-yl)acetamide]	370	–
Cc1c(Br)ccc(F)c1[C@@H](C)[C@H](NS(=O)(=O)c1ccc(Cl)c2c1OCCC2(C)O)c1n[nH]c(=O)o1 (single isomer, unassigned) [Example 222B]	–	670
Cc1c(Cl)ccc(F)c1[C@@H](C)[C@H](NS(=O)(=O)c1ccc(Br)cc1C(N)=O)c1n[nH]c(=O)o1 [Example 25, 5-bromo-2-(N-((1S,2R)-2-(3-chloro-6-fluoro 2 methylphenyl)-1-(5-oxo-4,5-dihydro-1,3,4-oxadiazol-2-yl)propyl)sulfamoyl)benzamide]	590	–
Cc1c(Cl)ccc(F)c1[C@@H](C)[C@H](NS(=O)(=O)c1ncc(Br)cc1C(N)=O)c1n[nH]c(=O)o1 [Example 254, 5-bromo-2-(N-((1S,2R)-2-(3-chloro-6-fluoro-2-methylphenyl)-1-(5-oxo-4,5-dihydro-1,3,4-oxadiazol-2-yl)propyl)sulfamoyl)nicotinamide]	250	–
C[C@H](c1c(F)ccc2ccccc12)[C@H](NS(=O)(=O)c1ccc(Br)cc1C(N)=O)c1n[nH]c(=O)o1 [Example 15, 5-bromo-2-(N-((1S,2R)-2-(2-fluoronaphthalen-1-yl)-1-(5-oxo-4,5-dihydro-1,3,4-oxadiazol-2-yl)propyl)sulfamoyl)benzamide]	400	–
Cc1ccc(F)c([C@@H](C)[C@H](NS(=O)(=O)c2cc(C(C)(C)O)c(Cl)cc2C(N)=O)c2n[nH]c(=O)o2)c1C [Example 198, 5-chloro-2-(N-((1S,2R)-2-(6-fluoro-2,3-dimethylphenyl)-1-(5-oxo-4,5-dihydro-1,3,4-oxadiazol-2-yl)propyl)sulfamoyl)-4-(2-hydroxypropan-2-yl)benzamide]	50	–
[2H]C([2H])([2H])C1(O)CCOc2c(S(=O)(=O)N[C@H](c3n[nH]c(=O)o3)[C@H](C)c3c(F)ccc(Br)c3C)ccc(Cl)c21 (single isomer, unassigned) [Example 226B]	–	300
COc1c(S(=O)(=O)N[C@H](c2n[nH]c(=O)o2)[C@H](C)c2c(F)ccc(C)c2C)ncc(Cl)c1C(C)O (stereo partly drawn) [Example 216, 5-chloro-N-((1S,2R)-2-(6-fluoro-2,3-dimethylphenyl)-1-(5-oxo-4,5-dihydro-1,3,4-oxadiazol-2-yl)propyl)-4-(1-hydroxyethyl)-3-methoxypyridine-2-sulfonamide]	670	–
